# Earlier results as cited in patent US20090197966A1, “Use of Hypothermia Inducing Drugs” (priority 2006, published 2009).
# Where two headings read alike, the source gives them in different places.
# System: TRPV1 receptor
# Conditions: systemic administration
smiles,measurement,setting,value
"COc1cc(CNC(=O)CCCC/C=C/C(C)C)ccc1O [capsaicin, 8-methyl-N-vallilyl-6-nonenamide]",hypothermic response,mammals,dramatic hypothermic response
same,hypothermic response,mice lacking the TRPV1 gene,absent
